Results on 5 compounds are retold here after patent publication EP0090353A1, “2-Pyridone derivatives, method for their preparation and pharmaceutical compositions containing them” (priority 1982, dated 1983).

Data set [1] is described as follows: Gastric ulcerogenic effect. The note with it: rat, stomach, po.
From the text: Gastrale ulzerogene Wirkung
(§2) Die Untersuchungen erfolgten an jeweils 10 männlichen Sprague-Dawley Ratten im Körpergewicht von 200-300 g. 48 Stunden vor Applikation der zu vergleichenden Verbindungen bis zum Töten der Tiere wurde das Futter entzogen, bei freiem Zugang zum Trinkwasser. Die Ratten wurden 24 Stunden nach oraler Gabe getötet, der Magen entnommen, unter fließendem Wasser gereinigt und auf Schleimhautläsionen inspiziert. Als Ulzera galten alle makroskopisch sichtbaren Läsionen. Bestimmt wurde der Anteil der Tiere mit Ulzera pro dosi und die UD50 nach Lichtfield und Wilcoxon (J. Pharmacol. exp. Ther. 96, 99 (1949)).
Data set [2] deals with gastrale Ulcera. The data set is described as follows: Gastric ulcerogenic effect. The settings on record: ratio of UD50 (gastric ulcers) to ED50 (adjuvant arthritis), rat.
From the text: Gastrale ulzerogene Wirkung
as §2
The subject of data set [3] is Adjuvans Arthritis. The data set is described as follows: Adjuvant arthritis (method of Pearson). The settings on record: Rattus norvegicus; male Wistar-Lewis rats, oral daily from day 1 to day 5; reduction of paw volume increase vs control; ED50 read graphically from dose-response curve. In kind it is in vivo, männliche Ratten eines Wistar-Lewis-Stammes. The source says: 1. Adjuvans Arthritis Die Untersuchungen wurden nach der Methode von Pearson durchgeführt (Arthrit. Rheum. 2, 440 (1959)). […] Die zu […] Verbindungen wurden täglich vom 1. bis zum 5. Versuchstag oral appliziert. Tiere einer Kontrollgruppe erhielten nur das Lösungsmittel. Pro Dosierung und in der Kontrollgruppe wurden jeweils 8 […] unbehandelten Kontrollgruppe. Die ED50-Werte wurden graphisch aus […].

A short description of data set [4]: in vivo. The settings on record: rat, in vivo; Sprague-Dawley rats, 6 animals per dose; Litchfield-Wilcoxon; read-out: LD50 akute Toxizität. The text has this: (§1) Die Bestimmung der akuten Toxizitäten erfolgten in Standardmethoden an Ratten des Sprague-Dawley-Stammes. Pro Dosierung wurden 6 Tiere verwendet. Die LD50-Werte wurden nach Lichtfield und Wilcoxon bestimmt. [drawing 8]

The subject of data set [5] is Ratten des Sprague-Dawley-Stammes. The data set is described as follows: in vivo. The settings on record: ratio of LD50 (acute toxicity) to ED50 (adjuvant arthritis), rat.
From the text: as §1

In the case of `CCOC(=O)[C@@H](C)Oc1cccc(-c2ccccc2)n1` [Beisp. 7, D(+)-2-(6-Phenylpyridin-2-oxy)-propansäureethylester], in data set [1], the TD50 at 24 h is 125 mg/kg. Further, the “TI(UD50/ED50) therapeutischer Index” value in data set [2] is reported as 8. The ED50 (commonly the dose that gives a 50% effect, or the effect in half of the subjects) in data set [3] turned out to be 15 mg/kg.
In data set [1], `CC(CO)Oc1cccc(-c2ccccc2)n1` (racemic) [Beisp. 9, DL-2-(6-Phenylpyridin-2-oxy)-propanol] showed a TD50 at 24 h of 220 mg/kg. Moreover, the “TI(UD50/ED50) therapeutischer Index” value in data set [2] was 11. Besides, the median effective dose (ED50) in data set [3] stood at 20 mg/kg. The median lethal dose (LD50) (in general, the dose at which mortality reaches 50%) in data set [4] turned out to be 1000 mg/kg. Besides, in data set [5], the “TI (LD50 /ED50) therapeutischer Index” value is listed as 50.
For the compound `CC(Oc1cccc(-c2ccccc2)n1)C(=O)O` (racemic) [Beisp. 4, DL-2-(6-Phenylpyridin-2-oxy)-propansäure], the TD50 at 24 h in data set [1] stood at 175 mg/kg. Besides, the “TI(UD50/ED50) therapeutischer Index” value in data set [2] is 9. Also, the ED50 in data set [3] turned out to be 20 mg/kg.
In the case of `COc1ccc2cc([C@H](C)C(=O)O)ccc2c1` [Naproxen, reference compound], the ED50 in data set [3] amounted to 15 mg/kg.
As to `CC1=C(CC(=O)O)c2cc(F)ccc2/C1=C\c1ccc([S+](C)[O-])cc1` (stereo not drawn) [Sulindac, reference compound], the TD50 at 24 h in data set [1] is 26 mg/kg. Besides, the “TI(UD50/ED50) therapeutischer Index” value in data set [2] is reported as 2. The ED50 in data set [3] turned out to be 13 mg/kg.
